Test results reported in patent US10314806B2 (SICHUAN JIUZHANG BIOLOGICAL SCIENCE AND TECHNOLOGY CO., LTD., priority 2014, dated 2019).

How the values were obtained:
human brain glioma = experiment: Inhibition of mice-transplanted human brain glioma; format: in vivo; conditions: 15 days, mice
Description: Human brain glioma cell lines were obtained from Key Laboratory of Transplant Engineering and Immunology, Ministry of health, West China Hospital, Sichuan University.
(1) Model establishment Mice were divided into groups, 10 mice for each group. The solution of brain glioblastoma cell lines was suitably diluted, and inoculated in cortex of left temporal lobe of mice, respectively.
Administration and intervention 24 h after inoculation, mice in each group were administrated by intraperitoneal injection. […] Each group was administrated for successive 15 days.
Determination of tumor inhibitory rate On the last day, the administration was stopped, and all mice were sacrificed and dissected. Tumor tissues were stripped and weighed. Tumor inhibitory rate %=(The mean tumor weight of control group−The mean tumor weight of drug groups)[The mean tumor weight of control group]×100%.
Statistical method The variance analysis of data was performed using the statistical program software package (SPSS13.0 for Windows), and p<0.05 was considered to be a statistically significant difference.

[1] = tested on: chemical liver injury (rat alcoholic fatty liver model); experiment: Protective effect on chemical liver injury (rat alcoholic fatty liver model); format: in vivo, rats; conditions: 30 days; for GSH / SOD: liver homogenate; for ALT / AST: serum
Description: Experimental grouping and dose design: Female SD rats were randomly divided to groups, 10 rats for each group, […], 70 mg·kg^−1, 85 mg·kg^−1, 100 mg·kg^−1, 120 mg·kg^−1, 140 mg·kg^−1, 160 mg·kg^−1, 180 mg·kg^−1, […], together with a negative control group and 50% ethanol model control group. Liver injury model was induced by ethanol (analytical pure).
Determination of ALT, AST, TG in serum of rats; Determination of SOD, MDA, reduced glutathione (GSH) in liver homogenate.
Statistics of experimental data: Statistical analysis of experimental data was performed using software package of SPSS 19.0 for windows.

[2] = 1 mg·kg^−1 intraperitoneal injection
[3] = 5 mg·kg^−1 intraperitoneal injection
[4] = 30 mg·kg^−1 intraperitoneal injection
[5] = 40 mg·kg^−1 intraperitoneal injection
[6] = 70 mg·kg^−1 intraperitoneal injection
[7] = 80 mg·kg^−1 intraperitoneal injection
[8] = 90 mg·kg^−1 intraperitoneal injection
[9] = 100 mg·kg^−1 intraperitoneal injection

O=C(/C=C/c1ccc(O)c(O)c1)O[C@@H]1C[C@](O)(C(=O)O)C[C@@H](O)[C@H]1O [Commercially available chlorogenic acid, chlorogenic acid, reference compound]
Inhibitmy rate (human brain glioma; [2]): 9.10%
Tumor weight (human brain glioma; [2]): 1.319 ± 0.245 g
Inhibitmy rate (human brain glioma; [3]): 11.16%
Tumor weight (human brain glioma; [3]): 1.289 ± 0.289 g
Inhibitmy rate (human brain glioma; 10 mg·kg^−1 intraperitoneal injection): 19.09%
Inhibitmy rate (human brain glioma; 20 mg·kg^−1 intraperitoneal injection): 24.12%
Inhibitmy rate (human brain glioma; [4]): 30.74%
Tumor weight (human brain glioma; [4]): 1.005 ± 0.225 g
Inhibitmy rate (human brain glioma; [5]): 31.91%
Tumor weight (human brain glioma; [5]): 0.988 ± 0.025 g
Inhibitmy rate (human brain glioma; 50 mg·kg^−1 intraperitoneal injection): 23.85%
Inhibitmy rate (human brain glioma; 60 mg·kg^−1 intraperitoneal injection): 22.47%
Inhibitmy rate (human brain glioma; [6]): 15.58%
Tumor weight (human brain glioma; [6]): 1.225 ± 0.534 g
Inhibitmy rate (human brain glioma; [7]): 12.13%
Tumor weight (human brain glioma; [7]): 1.275 ± 0.043 g
Inhibitmy rate (human brain glioma; [8]): 11.30%
Tumor weight (human brain glioma; [8]): 1.287 ± 0.323 g
Inhibitmy rate (human brain glioma; [9]): 7.79%
Tumor weight (human brain glioma; [9]): 1.338 ± 0.187 g
GSH ([1]; 10 mg·kg^−1 intragastric): 12.57 ± 3.84 mg/g
SOD ([1]; 10 mg·kg^−1 intragastric): 26.15 ± 2.45 nmol/mg
ALT ([1]; 10 mg·kg^−1 intragastric): 58.67 ± 2.89 U/L
AST ([1]; 10 mg·kg^−1 intragastric): 194.12 ± 6.32 U/L
GSH ([1]; 20 mg·kg^−1 intragastric): 13.62 ± 4.87 mg/g
SOD ([1]; 20 mg·kg^−1 intragastric): 27.24 ± 2.78 nmol/mg
ALT ([1]; 20 mg·kg^−1 intragastric): 57.41 ± 3.15 U/L
AST ([1]; 20 mg·kg^−1 intragastric): 193.89 ± 3.84 U/L
GSH ([1]; 35 mg·kg^−1 intragastric): 14.83 ± 5.47 mg/g
SOD ([1]; 35 mg·kg^−1 intragastric): 28.05 ± 1.45 nmol/mg
ALT ([1]; 35 mg·kg^−1 intragastric): 56.84 ± 2.87 U/L
AST ([1]; 35 mg·kg^−1 intragastric): 192.12 ± 5.12 U/L
GSH ([1]; 50 mg·kg^−1 intragastric): 15.57 ± 3.16 mg/g
SOD ([1]; 50 mg·kg^−1 intragastric): 29.14 ± 3.78 nmol/mg
ALT ([1]; 50 mg·kg^−1 intragastric): 56.88 ± 2.64 U/L
AST ([1]; 50 mg·kg^−1 intragastric): 190.56 ± 4.28 U/L
GSH ([1]; 70 mg·kg^−1 intragastric): 16.88 ± 2.78 mg/g
SOD ([1]; 70 mg·kg^−1 intragastric): 30.55 ± 2.05 nmol/mg
ALT ([1]; 70 mg·kg^−1 intragastric): 55.14 ± 1.65 U/L
AST ([1]; 70 mg·kg^−1 intragastric): 190.88 ± 3.65 U/L
GSH ([1]; 85 mg·kg^−1 intragastric): 17.37 ± 3.87 mg/g
SOD ([1]; 85 mg·kg^−1 intragastric): 31.04 ± 2.58 nmol/mg
ALT ([1]; 85 mg·kg^−1 intragastric): 53.24 ± 6.11 U/L
AST ([1]; 85 mg·kg^−1 intragastric): 198.87 ± 2.78 U/L
GSH ([1]; 100 mg·kg^−1 intragastric): 18.00 ± 3.21 mg/g
SOD ([1]; 100 mg·kg^−1 intragastric): 32.54 ± 3.47 nmol/mg
AST ([1]; 100 mg·kg^−1 intragastric): 187.12 ± 4.57 U/L
GSH ([1]; 120 mg·kg^−1 intragastric): 18.24 ± 6.48 mg/g
SOD ([1]; 120 mg·kg^−1 intragastric): 33.65 ± 5.01 nmol/mg
AST ([1]; 120 mg·kg^−1 intragastric): 184.25 ± 3.49 U/L
GSH ([1]; 140 mg·kg^−1 intragastric): 18.65 ± 3.48 mg/g
SOD ([1]; 140 mg·kg^−1 intragastric): 33.29 ± 2.68 nmol/mg
AST ([1]; 140 mg·kg^−1 intragastric): 182.36 ± 3.87 U/L
GSH ([1]; 160 mg·kg^−1 intragastric): 17.55 ± 4.87 mg/g
SOD ([1]; 160 mg·kg^−1 intragastric): 33.12 ± 1.75 nmol/mg
AST ([1]; 160 mg·kg^−1 intragastric): 180.15 ± 6.48 U/L
GSH ([1]; 180 mg·kg^−1 intragastric): 17.98 ± 5.94 mg/g
SOD ([1]; 180 mg·kg^−1 intragastric): 32.87 ± 2.16 nmol/mg
AST ([1]; 180 mg·kg^−1 intragastric): 179.54 ± 4.16 U/L
GSH ([1]; 200 mg·kg^−1 intragastric): 16.49 ± 4.21 mg/g
SOD ([1]; 200 mg·kg^−1 intragastric): 31.11 ± 2.54 nmol/mg
AST ([1]; 200 mg·kg^−1 intragastric): 185.48 ± 3.94 U/L
GSH ([1]; 220 mg·kg^−1 intragastric): 15.31 ± 3.46 mg/g
SOD ([1]; 220 mg·kg^−1 intragastric): 28.15 ± 2.04 nmol/mg
AST ([1]; 220 mg·kg^−1 intragastric): 188.34 ± 5.87 U/L
